According to paper PMC2827632 (Biochemistry, 2010):
Changes are numbered by the printed parent chain. Read-outs that look alike come from different tables or passages of the source.

Key:
[1] = target: T1, bovine Lpd (Bos taurus, UniProt F1N206); assay: Bovine Lpd DTNB assay; format: biochemical
T1 sequence (F1N206 36-509): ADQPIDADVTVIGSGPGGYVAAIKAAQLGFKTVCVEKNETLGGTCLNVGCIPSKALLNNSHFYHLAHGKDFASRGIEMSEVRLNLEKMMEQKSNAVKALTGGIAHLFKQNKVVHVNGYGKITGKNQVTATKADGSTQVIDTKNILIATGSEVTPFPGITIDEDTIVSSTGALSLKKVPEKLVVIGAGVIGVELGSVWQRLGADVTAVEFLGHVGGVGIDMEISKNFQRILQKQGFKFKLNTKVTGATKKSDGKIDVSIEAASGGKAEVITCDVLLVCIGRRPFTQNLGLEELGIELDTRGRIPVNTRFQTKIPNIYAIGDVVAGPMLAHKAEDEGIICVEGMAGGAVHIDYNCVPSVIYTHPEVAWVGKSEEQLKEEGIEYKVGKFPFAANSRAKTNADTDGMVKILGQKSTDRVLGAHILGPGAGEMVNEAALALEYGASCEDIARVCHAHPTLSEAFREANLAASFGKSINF

[2] = target: T2, Mtb Lpd (Mycobacterium tuberculosis, UniProt P9WHH9)
T2 sequence (P9WHH9 1-464): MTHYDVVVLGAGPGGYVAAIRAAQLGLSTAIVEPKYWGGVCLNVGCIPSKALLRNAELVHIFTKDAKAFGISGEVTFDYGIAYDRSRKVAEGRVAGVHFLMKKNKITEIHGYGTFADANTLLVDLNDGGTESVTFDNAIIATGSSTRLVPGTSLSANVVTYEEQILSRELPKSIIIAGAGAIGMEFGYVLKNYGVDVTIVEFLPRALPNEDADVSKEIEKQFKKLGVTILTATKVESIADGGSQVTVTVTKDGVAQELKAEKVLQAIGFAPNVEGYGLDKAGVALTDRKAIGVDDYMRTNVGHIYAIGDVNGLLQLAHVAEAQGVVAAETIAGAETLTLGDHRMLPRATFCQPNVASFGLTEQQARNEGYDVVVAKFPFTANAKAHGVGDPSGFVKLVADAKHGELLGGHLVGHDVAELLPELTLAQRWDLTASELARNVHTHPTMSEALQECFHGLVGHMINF

[3] = target: T3, human Lpd (Homo sapiens, UniProt P09622); assay: Human Lpd DTNB assay; format: biochemical; conditions: for Inhibition of human Lpd (words): concentrations up to 100 μM
T3 sequence (P09622 36-509): T1 sequence (F1N206 36-509) with V35I, F62Y, L65M, E86D, N94T, S135G, L181M, Q285K, T298P

[4] = target: T4, porcine PDHC (Sus scrofa, UniProt P09623); assay: Porcine PDHC assay; format: biochemical
T4 sequence (P09623 36-509): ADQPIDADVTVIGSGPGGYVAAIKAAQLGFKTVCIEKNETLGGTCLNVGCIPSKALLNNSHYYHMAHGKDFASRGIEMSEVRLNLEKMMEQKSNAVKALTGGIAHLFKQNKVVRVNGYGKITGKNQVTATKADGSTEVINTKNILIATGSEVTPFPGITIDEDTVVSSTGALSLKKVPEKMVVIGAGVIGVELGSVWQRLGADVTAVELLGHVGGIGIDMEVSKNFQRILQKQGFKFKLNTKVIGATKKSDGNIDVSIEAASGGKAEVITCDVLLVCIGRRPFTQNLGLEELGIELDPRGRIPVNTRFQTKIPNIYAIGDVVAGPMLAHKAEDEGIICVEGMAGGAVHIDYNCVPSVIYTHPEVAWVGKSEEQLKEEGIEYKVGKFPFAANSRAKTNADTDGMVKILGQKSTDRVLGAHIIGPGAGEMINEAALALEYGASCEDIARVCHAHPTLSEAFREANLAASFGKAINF

[5] = target: T3, human Lpd; assay: Human Lpd dihydrolipoamide-NAD+ spectrophotometric assay; format: biochemical; conditions: dihydrolipoamide and NAD+ as substrates, up to 100 μM
[6] = test system: mouse bone marrow macrophages; assay: cells; format: cell-based; conditions: for EC50: read-out: BMM EC50 (concentration at which viability is reduced to 50%)
[7] = target: T5, PDHC activity in Mtb lysates (Mycobacterium tuberculosis, UniProt P9WHH9); format: biochemical
T5 sequence (P9WHH9 1-464): T2 sequence (P9WHH9 1-464)

[8] = target: T6, Mtb PDHC (Mycobacterium tuberculosis, UniProt P9WHH9); conditions: read-out: IC50 Mtb PDHC; PDHC assay
T6 sequence (P9WHH9 1-464): T2 sequence (P9WHH9 1-464)

[9] = target: T2, Mtb Lpd; remark: listed apart in the source
[10] = target: T7, bovine thioredoxin reductase (Bos taurus, UniProt O62768); assay: Bovine thioredoxin reductase DTNB assay; format: biochemical; conditions: for IC50: DTNB assay, 100 μM NADPH
T7 sequence (O62768 1-499): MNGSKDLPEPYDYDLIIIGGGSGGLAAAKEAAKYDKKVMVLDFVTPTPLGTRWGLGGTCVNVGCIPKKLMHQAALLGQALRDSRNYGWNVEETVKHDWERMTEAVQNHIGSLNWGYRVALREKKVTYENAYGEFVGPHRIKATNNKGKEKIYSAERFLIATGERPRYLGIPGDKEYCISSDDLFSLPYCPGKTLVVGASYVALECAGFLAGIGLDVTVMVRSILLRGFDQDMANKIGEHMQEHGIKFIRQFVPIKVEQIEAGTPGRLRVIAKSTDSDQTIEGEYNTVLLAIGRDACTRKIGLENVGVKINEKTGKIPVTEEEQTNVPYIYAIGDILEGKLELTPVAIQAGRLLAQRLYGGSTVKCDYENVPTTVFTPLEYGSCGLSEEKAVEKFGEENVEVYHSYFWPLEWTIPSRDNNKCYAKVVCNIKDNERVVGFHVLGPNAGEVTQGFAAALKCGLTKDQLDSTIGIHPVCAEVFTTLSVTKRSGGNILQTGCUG

[11] = target: T2, Mtb Lpd; remark: listed apart in the source
[12] = target: the molecule itself; assay: crystal structure

COc1ccc(C(=O)N2CCC3(CC2)C(=O)N(CC(=O)NCc2cccc(C(F)(F)F)c2)CN3c2ccccc2)c(OC)c1 [compound 4, 2-(8-(2,4-dimethoxybenzoyl)-4-oxo-1-phenyl-1,3,8-triazaspiro[4.5]decan-3-yl)-N-(3-(trifluoromethyl)benzyl) acetamide]
IC50 ([1]; read-out: IC50 bLpd, DTNB assay): > 100 µM
IC50 ([2]; read-out: IC50 Mtb Lpd NADH-lipoamide, NADH-lipoamide assay): 2 µM
Inhibition of human Lpd (words) [3]: did not inhibit
IC50 ([3]; read-out: IC50 hLpd, DTNB assay): > 100 µM
IC50 ([4]; read-out: IC50 pPDHC, PDHC assay): 100 µM
Inhibition of human Lpd, physiological direction [5]: No inhibition
EC50 [6]: > 100 µM
IC50 for Lpd activity in Mtb extracts measured by inhibition of PDHC activity [7]: low micromolar range
IC50 [8]: 7.2 µM
Inhibition of Mtb Lpd in dihydrolipoamide-NAD+ assay [9]: inhibited
IC50 ([10]; read-out: IC50 bTR): > 100 µM
IC50 ([11]; read-out: IC50 Mtb Lpd + BSA, DTNB assay with 100 μg/ml bovine serum albumin): 2.1 µM
IC50 ([11]; read-out: IC50 Mtb Lpd, DTNB assay): 2 µM

COc1ccc(C(=O)N2CCC3(CC2)C(=O)N(CC(=O)NCCc2ccc(Cl)cc2Cl)CN3c2ccccc2)c(OC)c1 [compound 5, N-(2,4-dichlorophenethyl)-2-(8-(2,4-dimethoxybenzoyl)-4-oxo-1-phenyl-1,3,8-triazaspiro[4.5]decan-3-yl)acetamide]
IC50 [1]: 100 µM
Inhibition of bovine Lpd ([1]; Fig. 2C): minimally inhibits
Mode of inhibition with respect to NADH ([2]; variable NADH 3.33 to 100 μM): noncompetitive
Mode of inhibition with respect to lipoamide ([2]; variable lipoamide): noncompetitive
IC50 [3]: > 100 µM
Inhibition of human Lpd (words) [3]: did not produce any measurable inhibition
Inhibition of human Lpd (words) ([3]; listed as Compound 5): no inhibition
IC50 [4]: 100 µM
Inhibition of porcine PDHC ([4]; Fig. 2C): minimally inhibits
Inhibition of human Lpd, physiological direction [5]: No inhibition
Mouse bone marrow macrophage survival ([6]; 100 μM (limit of solubility)): 80%
Toxicity against primary mouse bone marrow macrophages ([6]; Fig. 2C): no toxicity
EC50 ([6]; Mus musculus, Bone marrow macrophage, 24 h): > 100 µM
Inhibition of Mtb Lpd in dihydrolipoamide-NAD+ assay [9]: inhibited
Mode of inhibition with respect to NAD+ ([9]; variable NAD+ 25 μM to 2.5 mM): noncompetitive
Inhibition of bovine thioredoxin reductase ([10]; Fig. 2C): minimally inhibits
IC50 ([10]; IC50 bTR): 20 µM

B1: Mycobacterium tuberculosis lipoamide dehydrogenase (Lpd), residues 1-464 (enzyme)
chain: T2 sequence (P9WHH9 1-464)
binding result [12]: binds
